# Measurements: US9192667B2, “Method of treating cancer by administering CSF-1R antibodies and a TLR9 agonist” (Hoffmann-La Roche Inc., priority 2013, dated 2015)
# Columns and labels:
# [1] = system: MC38 mouse CRC in vivo model; assay: Tumor growth inhibition in subcutaneous syngeneic MC38 colon carcinoma model; settings: antibody 30 mg/kg i.p. weekly, CpG ODN 1826 100 μg peritumoral 1×; for TGI (day 24): versus control antibody
# Text: Additionally to the assessment of median tumor volume after 2 weeks of treatment the progression of individual tumors in the study was followed until progression ≧700 mm3 (FIG. 1 (CpG is TLR9 agonist CpG ODN 1826) and Table 11)
# [2] = SCID mouse; cited from earlier work
# [3] = phase 1/1 I clinical study; cited from earlier work
# lymphoma = settings: phase 1/1 I clinical study; cited from earlier work
substance,measurement,setting,value
CpG ODN 1826,Median time to progression TV > 700 mm3,[1],24 days
same,TCR (day 24),[1],0.28
same,TGI (day 24),[1],74%
same,TGI (day 24),[1]; listed as TLR9 agonist (CpG),73%
"CpG-685: synthetic, 21-mer fully phosphorothioated CpG ODN 5′-tcgtcgacgtcgttcgttctc-3′ (SEQ ID NO: 93), SBI Biotech (DNA TCGTCGACGTCGTTCGTTCTC; DNA, all phosphorothioate, methylation of C not given here)",antitumor effects,[2],showed antitumor effects
d(P-Thio)(TCGTCGTTTTGTCGTTTTGTCGTT)DNA [CpG-7909],tolerability,[3],well tolerated
same,antilymphoma activity,lymphoma,antilymphoma activity
